Where two headings read alike, the source gives them in different places.
Columns and labels:
NEK7 = NEK7 (Homo sapiens (Human), UniProt Q8TDX7+Q96SW2); assay: NEK7 NanoBiT degradation assay in Cal51 NEK7 NanoBiT cell line; format: cell-based; settings: Cal51 NEK7 NanoBiT cells, 24 hours; for Dmax: CAL-51
Description: Cal51 NEK7 NanoBiT cell line was generated via CRISPR Knock-In of the HiBiT tag in NEK7 gene and stable infection with a lentivirus carrying LgBiT protein. The cell line was generated in house. For the experiment, cells were plated in 384-well white flat bottom plates (Corning, 3570BC) at 2500 cells per well using Multiflo (BioTek/Agilent) and in 25 μl volume in DMEM experimental medium: DMEM (DMEM, high glucose, HEPES, no phenol red (ThermoFisher Scientific, 21063029) supplemented with 10% FBS (Corning, 35-075-CV), 1% Penicillin/Streptomycin ((ThermoFisher Scientific, 15140-122), and 1% Endurazine (Nano-Glo Endurazine Live Cell Substrate (Promega, N2571)). Cells were incubated for 16 hours at 37° C., 5% CO2 before compound addition. For dose response determination, 2.5 nL of a compound at different concentrations (stock compound concentration range: 10 mM to 0.5 μM, final concentration range inside cell plate: 1 μM to 0.05 nM) were dispensed into the plate using an Echo® 650 liquid handling device (Backman Coulter/Labcyte). Cells were incubated at 37° C., 5% CO2 for 24 hours and then signal was read on a Pherastar FSX using “LUM plus” optic module with 4095 gain and measurement interval time 0.2 seconds.
Analysis was performed in Genedata Screener (Genedata, Basel, CH). Luminescence response (R) was calculated by the formula: response=100*(S−N)/(P−N) where S is the signal of the well, N and P the mean negative and positive control values respectively of the same plate. The luminescence response was then fitted in Genedata using a 4-parameter antagonist logistic fit (hill slope unconstrained, EC50>0, top/bottom unconstrained).

CRBN-DDB1 = CRBN-DDB1 (Homo sapiens (Human), UniProt Q96SW2); assay: Compound binding to CRBN by HTRF assay
CRBN-DDB1, sequence (Q96SW2 whole entry): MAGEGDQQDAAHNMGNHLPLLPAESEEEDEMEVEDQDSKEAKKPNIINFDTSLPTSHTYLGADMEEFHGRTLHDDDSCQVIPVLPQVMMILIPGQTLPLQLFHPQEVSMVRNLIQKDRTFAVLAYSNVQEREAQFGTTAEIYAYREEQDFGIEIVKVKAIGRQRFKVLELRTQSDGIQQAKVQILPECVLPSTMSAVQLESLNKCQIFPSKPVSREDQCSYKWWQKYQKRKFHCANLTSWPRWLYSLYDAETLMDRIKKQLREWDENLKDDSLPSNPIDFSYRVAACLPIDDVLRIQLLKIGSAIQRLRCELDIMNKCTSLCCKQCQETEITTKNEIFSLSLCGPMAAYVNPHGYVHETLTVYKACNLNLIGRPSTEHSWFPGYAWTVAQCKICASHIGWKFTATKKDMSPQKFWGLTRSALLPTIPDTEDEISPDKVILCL
CRBN-DDB1, sequence (Q16531 whole entry partner): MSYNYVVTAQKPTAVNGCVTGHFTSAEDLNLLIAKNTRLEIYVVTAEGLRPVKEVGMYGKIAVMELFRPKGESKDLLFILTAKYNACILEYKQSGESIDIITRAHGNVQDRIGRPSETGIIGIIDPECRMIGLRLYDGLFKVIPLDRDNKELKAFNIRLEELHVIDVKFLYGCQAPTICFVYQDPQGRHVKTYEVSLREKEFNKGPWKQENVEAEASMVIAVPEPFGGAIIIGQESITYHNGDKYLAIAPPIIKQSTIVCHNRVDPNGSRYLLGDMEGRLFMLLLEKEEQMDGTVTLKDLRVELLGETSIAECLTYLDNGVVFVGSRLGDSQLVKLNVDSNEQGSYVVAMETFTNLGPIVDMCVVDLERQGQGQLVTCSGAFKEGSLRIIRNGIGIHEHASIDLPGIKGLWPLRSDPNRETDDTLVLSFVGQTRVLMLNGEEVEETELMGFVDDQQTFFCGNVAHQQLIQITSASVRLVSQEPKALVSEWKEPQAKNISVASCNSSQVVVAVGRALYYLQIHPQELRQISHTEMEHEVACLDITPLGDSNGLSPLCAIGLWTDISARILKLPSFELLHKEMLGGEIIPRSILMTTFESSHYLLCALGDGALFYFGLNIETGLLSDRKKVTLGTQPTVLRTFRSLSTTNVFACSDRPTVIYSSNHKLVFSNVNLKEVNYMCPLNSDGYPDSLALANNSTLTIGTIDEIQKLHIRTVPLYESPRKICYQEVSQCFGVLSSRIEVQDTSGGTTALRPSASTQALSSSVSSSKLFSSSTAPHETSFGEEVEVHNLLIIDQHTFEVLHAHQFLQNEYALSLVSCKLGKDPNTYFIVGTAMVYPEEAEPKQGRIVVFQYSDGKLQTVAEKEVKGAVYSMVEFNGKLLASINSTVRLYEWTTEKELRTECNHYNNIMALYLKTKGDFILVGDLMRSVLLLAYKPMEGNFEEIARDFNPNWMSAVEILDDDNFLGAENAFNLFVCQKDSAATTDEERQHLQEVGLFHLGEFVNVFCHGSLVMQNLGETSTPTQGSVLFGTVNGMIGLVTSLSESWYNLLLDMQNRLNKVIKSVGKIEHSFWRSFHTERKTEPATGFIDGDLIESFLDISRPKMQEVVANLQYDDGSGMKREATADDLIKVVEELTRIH
Description: Compound activity was monitored in a Homogenous Time-Resolved Fluorescence (HTRF) assay using 1-[5-({2-[2-(2-{[2-(2,6-dioxopiperidin-3-yl)-1,3-dioxo-2,3-dihydro-1H-isoindol-4-yl]oxy}acetamido)ethoxy]ethyl}carbamoyl)pentyl]-3,3-dimethyl-2-[(1E,3E)-5-[(2E)-1,3,3-trimethyl-5-sulfo-2,3-dihydro-1H-indol-2-ylidene]penta-1,3-dien-1-yl]-3H-indol-1-ium-5-sulfonate as a fluorescent probe. Biochemical assays were conducted in Greiner white 384 well HiBase plates (Cat. No 784075-25) in 20 μL total volume. A one pot detection solution of CRBN-DDB1 (2.5 nM), Anti-His Terbium Cryptate Gold (1×, PerkinElmer Cat. #: 61HI2TLB), and Cy5-Thalidomide (100 nM, Tenova Cat.: T52461) was prepared in 20 mM HEPES, 20 mM NaCl, 0.2 mM TCEP, 0.2 mM EDTA, and 0.005% Tween20 was dispensed to each assay plate. Compounds were stored in dry, ambient temperatures at 10 mM. An 11-point, 1:3 dilution series was prepared from 10 mM stock concentrations in Echo-compatible LDV plates. 10 nL of each compound dilution series was dispensed into assays wells using an Echo 650 (Labcyte Inc. USA). 20 nL of 10 mM Lenalidomide was transferred into the active-control wells for the assay and 20 nL of DMSO was transferred into the neutral-control wells. The assay was then allowed to incubate for 30 min at ambient temperature after transferring compound. Plate measurements were taken on a Pherastar FSX (BMG Labtech, Germany) using the HTRF Red filter (Ex. 337 nm, em1: 620 nm, em2: 665 nm) (Flashes: 50, Integration time: 60-400 us, Z-height: 10 mm, Ratio-multiplier: 10,000). The HTRF signal was then subsequently normalized to the neutral and active controls. Analysis and EC50 values were derived using KNIME analytics (KNIME Zurich) transformation and fitting within Collaborative Drug Discovery (Collaborative Drug Discovery USA). Ki was derived from the geometric mean of the EC50 values using the Cheng-Prustoff transformation.

[1] = NEK7 degradation, read-out: NanoBiT Dmax
[2] = NEK7 degradation, read-out: NanoBiT DC50

NEK7, sequence (Q8TDX7 whole entry): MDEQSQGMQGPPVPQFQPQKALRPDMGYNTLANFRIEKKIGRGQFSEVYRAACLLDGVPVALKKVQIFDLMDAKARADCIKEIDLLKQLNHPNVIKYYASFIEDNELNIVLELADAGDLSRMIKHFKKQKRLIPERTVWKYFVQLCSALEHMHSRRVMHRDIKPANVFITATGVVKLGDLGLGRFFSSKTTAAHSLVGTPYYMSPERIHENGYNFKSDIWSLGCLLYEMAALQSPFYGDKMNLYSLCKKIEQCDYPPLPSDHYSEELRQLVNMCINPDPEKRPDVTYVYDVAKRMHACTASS
NEK7, sequence (Q96SW2 whole entry): as the sequence (Q96SW2 whole entry) above
NEK7, sequence (Q16531 2-1140 partner): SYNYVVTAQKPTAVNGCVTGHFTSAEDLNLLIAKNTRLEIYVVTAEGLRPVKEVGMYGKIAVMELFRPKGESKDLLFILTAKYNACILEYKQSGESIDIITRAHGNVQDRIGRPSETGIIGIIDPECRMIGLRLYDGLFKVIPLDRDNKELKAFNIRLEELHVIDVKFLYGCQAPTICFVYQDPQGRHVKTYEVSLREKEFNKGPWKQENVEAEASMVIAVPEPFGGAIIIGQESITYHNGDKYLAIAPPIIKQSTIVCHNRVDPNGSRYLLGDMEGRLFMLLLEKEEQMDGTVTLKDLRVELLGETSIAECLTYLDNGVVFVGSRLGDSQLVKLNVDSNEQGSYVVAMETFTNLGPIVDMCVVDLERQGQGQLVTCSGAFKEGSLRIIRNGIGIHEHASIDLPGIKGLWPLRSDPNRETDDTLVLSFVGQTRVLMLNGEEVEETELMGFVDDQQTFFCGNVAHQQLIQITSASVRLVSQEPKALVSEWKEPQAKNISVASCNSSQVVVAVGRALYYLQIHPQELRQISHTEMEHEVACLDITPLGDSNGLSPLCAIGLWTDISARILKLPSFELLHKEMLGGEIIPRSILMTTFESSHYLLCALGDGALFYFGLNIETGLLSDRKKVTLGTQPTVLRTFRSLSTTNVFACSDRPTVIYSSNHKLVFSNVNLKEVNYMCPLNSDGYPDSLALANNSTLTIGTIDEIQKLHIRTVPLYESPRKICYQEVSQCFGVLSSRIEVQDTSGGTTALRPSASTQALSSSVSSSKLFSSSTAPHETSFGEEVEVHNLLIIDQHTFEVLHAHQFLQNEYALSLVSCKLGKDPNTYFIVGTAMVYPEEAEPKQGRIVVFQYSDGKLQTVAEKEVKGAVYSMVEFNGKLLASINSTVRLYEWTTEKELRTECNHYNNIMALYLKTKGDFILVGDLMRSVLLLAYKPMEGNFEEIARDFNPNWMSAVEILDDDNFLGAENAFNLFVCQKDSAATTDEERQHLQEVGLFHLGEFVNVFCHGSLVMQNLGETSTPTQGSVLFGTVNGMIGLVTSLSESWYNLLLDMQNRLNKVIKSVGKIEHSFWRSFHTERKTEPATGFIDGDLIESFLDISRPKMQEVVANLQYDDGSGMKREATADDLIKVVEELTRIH

| Structure (SMILES) | Dmax (NEK7; read-out: NEK7 NanoBiT Dmax) | Dmax (NEK7; [1]) | DC50 (NEK7; read-out: NEK7 NanoBiT DC50) | DC50 (NEK7; [2]) | EC50 (CRBN-DDB1) | EC50 (CRBN-DDB1; HTRF class, Cereblon binding) |
| --- | --- | --- | --- | --- | --- | --- |
| CC(C)(C(=O)NCc1cc(Cl)c(C2CCC(=O)NC2=O)c(Cl)c1)c1cccc(F)c1 (stereo not drawn) [Compound 27] | 96% | > 75% | 1 nM | ≤ 100 nM | 50 nM | ≤ 100 nM |
| CC(C)(C(=O)NCc1ccc(C2CCC(=O)NC2=O)c(Cl)c1)c1ccc(C#N)cc1 (stereo not drawn) [Compound 28] | 91% | > 75% | 17 nM | ≤ 100 nM | 470 nM | 100 to 1000 nM |
| CC(C)(C(=O)NCc1cc(Cl)c(C2CCC(=O)NC2=O)c(Cl)c1)c1ccc(C#N)cc1 (stereo not drawn) [Compound 29] | 97% | > 75% | 0.4 nM | ≤ 100 nM | 80 nM | ≤ 100 nM |
| CC(C)(C(=O)NCc1ccc(C2CCC(=O)NC2=O)c(Cl)c1)c1ccc(F)cc1 (stereo not drawn) [Compound 30] | 92% | > 75% | 12 nM | ≤ 100 nM | 350 nM | 100 to 1000 nM |
| CC(C)(C(=O)NCc1cc(F)c(C2CCC(=O)NC2=O)c(Cl)c1)c1ccccc1 (stereo not drawn) [Compound 31] | 93% | > 75% | 6 nM | ≤ 100 nM | 130 nM | 100 to 1000 nM |
| CC(C)(C(=O)NCc1cc(Cl)c(C2CCC(=O)NC2=O)c(Cl)c1)c1ccc2c(c1)S(=O)(=O)NC2 (stereo not drawn) [Compound 32, N-(3,5-dichloro-4-(2,6-dioxopiperidin-3-yl)benzyl)-2-(1,1-dioxido-2,3-dihydrobenzo[d]isothiazol-6-yl)-2-methylpropanamide] | 95% | > 75% | 4 nM | ≤ 100 nM | 110 nM | 100 to 1000 nM |
| CC(C)(C(=O)NCc1cc(Cl)c(C2CCC(=O)NC2=O)c(Cl)c1)c1ccc2ncncc2c1 (stereo not drawn) [Compound 33] | 96% | > 75% | 2 nM | ≤ 100 nM | 120 nM | 100 to 1000 nM |
| CC(C)(C(=O)NCc1cc(Cl)c(C2CCC(=O)NC2=O)c(Cl)c1)c1ccc2cnncc2c1 (stereo not drawn) [Compound 35, N-(3,5-dichloro-4-(2,6-dioxopiperidin-3-yl)benzyl)-2-methyl-2-(phthalazin-6-yl)propanamide] | 77% | > 75% | 19 nM | ≤ 100 nM | 130 nM | 100 to 1000 nM |
| CC(C)(C(=O)NCc1cc(Cl)c(C2CCC(=O)NC2=O)c(Cl)c1)c1cc(F)c(S(N)(=O)=O)c(F)c1 (stereo not drawn) [Compound 36, N-(3,5-dichloro-4-(2,6-dioxopiperidin-3-yl)benzyl)-2-(3,5-difluoro-4-sulfamoylphenyl)-2-methylpropanamide] | 95% | > 75% | 5 nM | ≤ 100 nM | 80 nM | ≤ 100 nM |
| CC1(C(=O)NCc2cc(Cl)c(C3CCC(=O)NC3=O)c(Cl)c2)COc2ccccc2C1 (stereo not drawn) [Compound 38, N-(3,5-dichloro-4-(2,6-dioxopiperidin-3-yl)benzyl)-3-methylchromane-3-carboxamide] | 90% | > 75% | 6 nM | ≤ 100 nM | 40 nM | ≤ 100 nM |
| CC(C)(C(=O)NCc1cc(Cl)c(C2CCC(=O)NC2=O)c(Cl)c1)c1ccc(S(N)(=O)=O)c(F)c1 (stereo not drawn) [Compound 39, N-(3,5-dichloro-4-(2,6-dioxopiperidin-3-yl)benzyl)-2-(3-fluoro-4-sulfamoylphenyl)-2-methylpropanamide] | 97% | > 75% | 2 nM | ≤ 100 nM | 50 nM | ≤ 100 nM |
| Cc1cc(C(C)(C)C(=O)NCc2cc(Cl)c(C3CCC(=O)NC3=O)c(Cl)c2)cc(=O)[nH]1 (stereo not drawn) [Compound 42, N-(3,5-dichloro-4-(2,6-dioxopiperidin-3-yl)benzyl)-2-methyl-2-(6-methyl-2-oxo-1,2-dihydropyridin-4-yl)propanamide] | 93% | > 75% | 20 nM | ≤ 100 nM | 180 nM | 100 to 1000 nM |

Continued, values first:

| Dmax (NEK7; read-out: NEK7 NanoBiT Dmax) | Dmax (NEK7; [1]) | DC50 (NEK7; read-out: NEK7 NanoBiT DC50) | DC50 (NEK7; [2]) | EC50 (CRBN-DDB1) | EC50 (CRBN-DDB1; HTRF class, Cereblon binding) | Structure (SMILES) |
| --- | --- | --- | --- | --- | --- | --- |
| 93% | > 75% | 8 nM | ≤ 100 nM | 100 nM | ≤ 100 nM | CC(C)(C(=O)NCc1cc(Cl)c(C2CCC(=O)NC2=O)c(Cl)c1)c1ccc2c(c1)CNS2(=O)=O (stereo not drawn) [Compound 40] |
| 98% | > 75% | 0.4 nM | ≤ 100 nM | 60 nM | ≤ 100 nM | CC(C)(C(=O)NCc1cc(Cl)c(C2CCC(=O)NC2=O)c(Cl)c1)c1ccc2nnccc2c1 (stereo not drawn) [Compound 41] |
| 97% | > 75% | 1 nM | ≤ 100 nM | 40 nM | ≤ 100 nM | CC(C)(C(=O)NCc1cc(Cl)c(C2CCC(=O)NC2=O)c(Cl)c1)c1ccc(S(N)(=O)=O)cc1F (stereo not drawn) [Compound 43] |
| 88% | > 75% | 38 nM | ≤ 100 nM | 230 nM | 100 to 1000 nM | CC(C)(C(=O)NCc1cc(Cl)c(C2CCC(=O)NC2=O)c(Cl)c1)c1ccn2cnnc2c1 (stereo not drawn) [Compound 44] |
| 91% | > 75% | 13 nM | ≤ 100 nM | 530 nM | 100 to 1000 nM | CCn1ccc(C(C)(C)C(=O)NCc2cc(Cl)c(C3CCC(=O)NC3=O)c(Cl)c2)cc1=O (stereo not drawn) [Compound 45] |
| 71% | 50 to 75% | 61 nM | ≤ 100 nM | 50 nM | ≤ 100 nM | COc1nccc(C(C)(C)C(=O)NCc2cc(Cl)c(C3CCC(=O)NC3=O)c(Cl)c2)n1 (stereo not drawn) [Compound 46] |
| 85% | > 75% | 4 nM | ≤ 100 nM | 30 nM | ≤ 100 nM | CC1(C(=O)NCc2cc(Cl)c(C3CCC(=O)NC3=O)c(Cl)c2)COc2ccccc2O1 (stereo not drawn) [Compound 47] |
| 66% | 50 to 75% | 54 nM | ≤ 100 nM | 130 nM | 100 to 1000 nM | CN1Cc2ccccc2CC1C(=O)NCc1cc(Cl)c(C2CCC(=O)NC2=O)c(Cl)c1 (stereo not drawn) [Compound 48] |
| 99% | > 75% | 0.1 nM | ≤ 100 nM | 70 nM | ≤ 100 nM | CC(C)(C(=O)NCc1cc(Cl)c(C2CCC(=O)NC2=O)c(Cl)c1)c1ccc2nccnc2c1 (stereo not drawn) [Compound 49] |
| 88% | > 75% | 18 nM | ≤ 100 nM | 150 nM | 100 to 1000 nM | CC(C)(C(=O)NCc1cc(Cl)c(C2CCC(=O)NC2=O)c(Cl)c1)c1ccc(NS(C)(=O)=O)cc1 (stereo not drawn) [Compound 50] |
| 96% | > 75% | 1 nM | ≤ 100 nM | 70 nM | ≤ 100 nM | CC(C)(C(=O)NCc1cc(Cl)c(C2CCC(=O)NC2=O)c(Cl)c1)c1ccc(C(N)=O)cc1F (stereo not drawn) [Compound 51] |
| 67% | 50 to 75% | 59 nM | ≤ 100 nM | 90 nM | ≤ 100 nM | CC(C)(C(=O)NCc1cc(Cl)c(C2CCC(=O)NC2=O)c(Cl)c1)c1cnc2ncsc2c1 (stereo not drawn) [Compound 52] |

From patent publication US20250243180A1, “TARGETED PROTEIN DEGRADATION” (Monte Rosa Therapeutics AG, priority 2023, published 2025)
